From patent US12581252B2, “Substituted pyrrolo[3,4-b]pyridines as PI3K-α inhibitors” (Relay Therapeutics, Inc., priority 2020, dated 2026)

Biological target: H1047R PIK3CA enzyme (Homo sapiens, UniProt P42336, H1047R)
Assay: ADP-Glo Biochemical PIK3CA Kinase Assay

Sequence of H1047R PIK3CA enzyme (P42336 whole entry H1047R): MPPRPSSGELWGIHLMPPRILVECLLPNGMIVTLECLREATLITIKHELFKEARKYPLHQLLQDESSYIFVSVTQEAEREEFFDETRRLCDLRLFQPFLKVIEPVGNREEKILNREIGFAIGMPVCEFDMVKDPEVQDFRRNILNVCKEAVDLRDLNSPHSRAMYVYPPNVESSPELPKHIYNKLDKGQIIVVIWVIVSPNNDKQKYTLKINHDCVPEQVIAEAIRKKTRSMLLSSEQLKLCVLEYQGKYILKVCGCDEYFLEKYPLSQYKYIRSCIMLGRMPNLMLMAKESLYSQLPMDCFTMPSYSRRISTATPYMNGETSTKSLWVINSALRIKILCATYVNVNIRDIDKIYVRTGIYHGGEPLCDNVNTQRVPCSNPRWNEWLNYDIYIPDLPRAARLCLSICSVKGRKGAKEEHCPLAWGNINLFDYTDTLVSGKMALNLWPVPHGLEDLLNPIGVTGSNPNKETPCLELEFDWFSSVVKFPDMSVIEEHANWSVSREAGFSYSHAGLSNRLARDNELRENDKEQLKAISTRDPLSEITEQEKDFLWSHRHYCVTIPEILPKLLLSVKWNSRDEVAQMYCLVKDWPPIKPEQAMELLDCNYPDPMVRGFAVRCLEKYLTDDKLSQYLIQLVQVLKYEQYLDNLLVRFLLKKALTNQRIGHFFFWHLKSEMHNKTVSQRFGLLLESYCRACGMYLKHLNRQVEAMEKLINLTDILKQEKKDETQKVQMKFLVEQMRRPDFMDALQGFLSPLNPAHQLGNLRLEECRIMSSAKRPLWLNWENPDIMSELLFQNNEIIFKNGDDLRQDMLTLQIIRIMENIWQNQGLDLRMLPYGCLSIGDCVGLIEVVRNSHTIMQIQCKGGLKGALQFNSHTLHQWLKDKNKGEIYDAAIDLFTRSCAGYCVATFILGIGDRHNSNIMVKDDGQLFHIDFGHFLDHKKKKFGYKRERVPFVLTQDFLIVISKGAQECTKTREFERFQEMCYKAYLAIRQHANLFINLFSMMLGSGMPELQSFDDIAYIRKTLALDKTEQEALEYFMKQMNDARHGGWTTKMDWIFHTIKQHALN
Sequence of H1047R PIK3CA enzyme (P27986 whole entry partner): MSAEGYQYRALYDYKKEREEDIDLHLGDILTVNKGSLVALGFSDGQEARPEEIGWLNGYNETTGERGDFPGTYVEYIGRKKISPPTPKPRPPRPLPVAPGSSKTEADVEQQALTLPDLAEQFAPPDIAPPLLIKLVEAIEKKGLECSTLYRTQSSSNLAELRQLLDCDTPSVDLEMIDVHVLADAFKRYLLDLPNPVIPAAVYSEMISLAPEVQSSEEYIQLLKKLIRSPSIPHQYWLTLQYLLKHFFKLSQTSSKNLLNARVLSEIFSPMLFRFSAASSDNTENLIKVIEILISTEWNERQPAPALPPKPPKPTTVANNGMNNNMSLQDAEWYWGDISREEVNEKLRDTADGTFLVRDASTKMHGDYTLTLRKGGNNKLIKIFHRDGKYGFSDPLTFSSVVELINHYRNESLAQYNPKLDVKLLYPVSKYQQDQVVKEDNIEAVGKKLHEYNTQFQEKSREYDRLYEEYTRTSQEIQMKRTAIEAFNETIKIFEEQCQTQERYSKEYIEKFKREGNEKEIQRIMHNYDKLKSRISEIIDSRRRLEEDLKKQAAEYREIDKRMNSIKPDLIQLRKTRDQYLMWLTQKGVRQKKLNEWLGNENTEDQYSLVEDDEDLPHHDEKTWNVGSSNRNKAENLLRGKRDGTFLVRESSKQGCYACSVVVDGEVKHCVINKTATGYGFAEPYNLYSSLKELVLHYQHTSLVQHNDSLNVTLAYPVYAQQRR

Row | SMILES | IC50 [nM]
1 | O=C1NC(c2cc(F)ccc2Cl)c2c(NC(=O)C34CC5CC(CC(O)(C5)C3)C4)cc(Br)cc21 (centres unmarked) [Compound I-1363] | 1000 to 10000
2 | Cc1ccccc1C(=O)Nc1cc(Br)cc2c1C(c1cc(F)ccc1Cl)NC2=O (centres unmarked) [Compound I-464] | 10000 to 100000
3 | N#C[C@@H]1CCN(C(=O)Nc2cc(-c3ccc4ncnn4c3)cc3c2C(c2cc(F)ccc2Cl)NC3=O)C1 (mixture of isomers) [Compound I-2416] | 10000 to 100000
4 | CC1(Nc2cc(NC(=O)c3cc(F)cc(C(F)(F)F)c3)c3c(c2)C(=O)NC3c2cc(F)ccc2Cl)COC1 (centres unmarked) [Compound I-610] | ≤ 100
5 | O=C(Nc1cccc2c(=O)[nH]n(-c3cc(F)ccc3Cl)c12)c1cc(F)cc(C(F)(F)F)c1 [Compound I-323] | 1000 to 10000
6 | Cc1ccccc1[C@@H]1NC(=O)c2nccc(NC(=O)N3CCc4c(F)cc(F)cc43)c21 [Compound I-229] | 500 to 1000
7 | O=C1NC(c2cc(F)ccc2Cl)c2c(NC(=O)N3CCCC3)cc(-c3ccc4ncnn4c3)cc21 (centres unmarked) [Compound I-1720] | 10000 to 100000
8 | O=C1NC(c2cc(F)ccc2Cl)c2c(NC(=O)N3CCc4ccccc43)cc(Br)cc21 (centres unmarked) [Compound I-309] | ≤ 100
9 | CNc1cc(NC(=O)N2C[C@@](O)(C(F)(F)F)c3cc(F)ccc32)c2c(c1C#N)C(=O)N[C@@H]2c1cc(F)ccc1Cl (single isomer, unassigned) [Compound I-2607] | 1000 to 10000
10 | Cc1cn(-c2cc(NC(=O)N3C[C@@](O)(C(F)(F)F)c4cc(F)ccc43)c3c(c2)C(=O)N[C@@H]3c2cc(F)ccc2Cl)cn1 (single isomer, unassigned) [Compound I-2636] | 1000 to 10000
11 | O=C(Nc1cc(-n2ccnc2)cc2c1[C@@H](c1cc(F)ccc1Cl)NC2=O)c1cc(F)cc(C(F)(F)F)c1 (stereo in doubt) [Compound I-1125] | 100 to 500
12 | O=C(Nc1cc(OC(F)F)cc2c1C(c1cc(F)ccc1Cl)NC2=O)c1cc(F)cc(C(F)(F)F)c1 (centres unmarked) [Compound I-812] | ≤ 100
13 | CN1CC(C2NC(=O)c3cccc(NC(=O)c4cc(F)cc(C(F)(F)F)c4)c32)C1 (racemic) [Compound I-1832] | 10000 to 100000
14 | O=C(Nc1cc(-c2cnc(C(O)CO)nc2)cc2c1C(c1cc(F)ccc1Cl)NC2=O)c1cc(F)cc(C(F)(F)F)c1 (centres unmarked) [Compound I-1542] | ≤ 100
15 | O=C(Nc1cccc2c1C(C1CCCCC1O)NC2=O)c1cc(F)cc(C(F)(F)F)c1 (centres unmarked) [Compound I-1820] | 10000 to 100000
16 | O=C1N[C@H](c2cc(F)ccc2Cl)c2c(NC(=O)N3C[C@](O)(C(F)(F)F)c4cc(F)ccc43)cccc21 (single isomer, unassigned) [Compound I-2516] | 1000 to 10000
17 | C[C@H](C#N)Cn1cc(-c2cc(NC(=O)N3C[C@H](O)c4cc(F)ccc43)c3c(c2)C(=O)N[C@@H]3c2cc(F)ccc2Cl)cn1 (single isomer, unassigned) [Compound I-2500] | 100 to 500
18 | CC(=O)N1CCC[C@H]1COc1cc(NC(=O)c2cc(F)cc(C(F)(F)F)c2)c2c(c1)C(=O)NC2c1cc(F)ccc1Cl (single isomer, unassigned) [Compound I-1466] | ≤ 100

Row | SMILES | IC50 [nM]
19 | Cn1ccc2ccc(C(=O)Nc3cc(Br)cc4c3C(c3cc(F)ccc3Cl)NC4=O)cc21 (centres unmarked) [Compound I-668] | 1000 to 10000
20 | O=C(Nc1cc(NC2CCC2(F)F)cc2c1C(c1cc(F)ccc1Cl)NC2=O)c1cc(F)cc(C(F)(F)F)c1 (centres unmarked) [Compound I-530] | ≤ 100
21 | O=C(Nc1cc(Br)cc2c1C(c1ccc(F)cc1Cl)NC2=O)c1cc(F)cc(C(F)(F)F)c1 (centres unmarked) [Compound I-756] | 100 to 500
22 | CC(C)(O)c1cc(NC(=O)N2C[C@H](O)c3ccccc32)c2c(c1)C(=O)N[C@H]2c1cc(F)ccc1Cl (single isomer, unassigned) [Compound I-2123] | 500 to 1000
23 | CN(C)S(=O)(=O)Cc1cc(NC(=O)c2cc(F)cc(C(F)(F)F)c2)c2c(c1)C(=O)N[C@H]2c1cc(F)ccc1Cl [Compound I-1489] | ≤ 100
24 | O=C1N[C@H](c2cc(F)ccc2Cl)c2c(NC(=O)N3C[C@@](O)(C(F)(F)F)c4cc(F)ccc43)cc(Cl)cc21 (single isomer, unassigned) [Compound I-2510] | 1000 to 10000
25 | O=C1NC(c2cc(F)ccc2Cl)c2c(NS(=O)(=O)N3CCc4ccccc43)cc(Br)cc21 (centres unmarked) [Compound I-1287] | 10000 to 100000
26 | CS(=O)(=O)c1cc(-c2ccc3ncnn3c2)cc2c1C(c1cc(F)ccc1Cl)NC2=O (centres unmarked) [Compound I-1941] | 10000 to 100000
27 | Cc1ccccc1C1NC(=O)c2c(C)ncc(NC(=O)c3cc(F)cc(C(F)(F)F)c3)c21 (centres unmarked) [Compound I-244, 3-Fluoro-N-(4-methyl-3-oxo-1-(o-tolyl)-2,3-dihydro-1H-pyrrolo[3,4-c]pyridin-7-yl)-5-(trifluoromethyl)benzamide] | 100 to 500
28 | CC(C)(C(=O)Nc1cc(Br)cc2c1C(c1cc(F)ccc1Cl)NC2=O)C(F)(F)F (centres unmarked) [Compound I-1620] | 10000 to 100000
29 | O=C(Nc1cc(CC2CCO2)cc2c1C(c1cc(F)ccc1Cl)NC2=O)c1cc(F)cc(C(F)(F)F)c1 (centres unmarked) [Compound I-1302] | ≤ 100
30 | O=C1NC(c2cc(F)ccc2Cl)c2c(NC(=O)C34CC5CC(C3)C(F)(F)C(C5)C4)cc(Br)cc21 (centres unmarked) [Compound I-1203] | 100 to 500
31 | C[C@H](C#N)n1cc(-c2cc(NC(=O)c3cc(F)cc(C(F)(F)F)c3)c3c(c2)C(=O)N[C@H]3c2cc(F)ccc2Cl)cn1 (single isomer, unassigned) [Compound I-1916] | ≤ 100
32 | O=C(Nc1cccc2c1[C@@H](CC1CCCC1)NC2=O)c1cc(F)cc(C(F)(F)F)c1 [Compound I-2154] | 1000 to 10000
33 | O=C(Nc1cc(CS(=O)(=O)Cc2cc[n+]([O-])cc2)cc2c1C(c1cc(F)ccc1Cl)NC2=O)c1cc(F)cc(C(F)(F)F)c1 (centres unmarked) [Compound I-1471] | ≤ 100
34 | CC(=O)N1CC(Oc2cc(NC(=O)c3cc(F)cc(C(F)(F)F)c3)c3c(c2)C(=O)NC3c2cc(F)ccc2Cl)C1 (centres unmarked) [Compound I-1251] | 100 to 500
35 | CC(=O)COc1cc(NC(=O)c2cc(F)cc(C(F)(F)F)c2)c2c(c1)C(=O)NC2c1cc(F)ccc1Cl (centres unmarked) [Compound I-708] | ≤ 100
36 | O=C(Nc1cc(-c2ccnc(C(F)F)c2)cc2c1[C@H](c1cc(F)ccc1Cl)NC2=O)c1cc(F)cc(C(F)(F)F)c1 [Compound I-2003] | ≤ 100

Second part, the compound after the results:

Row | IC50 [nM] | SMILES
37 | 10000 to 100000 | CC(C)(O)c1cc(NC(=O)c2cc(F)cc(Cl)c2)c2c(c1)C(=O)N[C@@H]2c1cc(F)ccc1Cl [Compound I-299]
38 | 10000 to 100000 | O=C(Nc1cc(-c2ccc3ncnn3c2)cc2c1C(c1cc(F)ccc1Cl)NC2=O)C(=NO)c1ccccc1 (centres unmarked) [Compound I-1760]
39 | ≤ 100 | O=C(Nc1cc(-c2ccc3nnc(Cl)n3c2)cc2c1C(c1cc(F)ccc1Cl)NC2=O)c1cc(F)cc(C(F)(F)F)c1 (centres unmarked) [Compound I-1574]
40 | 1000 to 10000 | O=C1NC(c2cc(F)ccc2Cl)c2c1cc(-c1cnn(C(F)F)c1)cc2-c1cn2ccc(C(F)(F)F)cc2n1 (centres unmarked) [Compound I-2135]
41 | 10000 to 100000 | Cc1ccccc1[C@H]1NC(=O)c2nccc(NC(=O)N3CCc4c(F)cc(F)cc43)c21 [Compound I-230]
42 | ≤ 100 | O=C(Nc1cccc2c1C(c1cc(Br)ccc1Cl)NC2=O)c1cc(F)cc(C(F)(F)F)c1 (centres unmarked) [Compound I-446]
43 | ≤ 100 | O=C(Nc1cc(CN2CCn3cnnc3C2)cc2c1C(c1cc(F)ccc1Cl)NC2=O)c1cc(F)cc(C(F)(F)F)c1 (centres unmarked) [Compound I-1401]
44 | 100 to 500 | Cc1ccc(C(=O)Nc2cc(Br)cc3c2C(c2cc(F)ccc2Cl)NC3=O)cc1C(F)(F)F (centres unmarked) [Compound I-875]
45 | ≤ 100 | O=C(Nc1cc(-n2ccnc2)cc2c1[C@H](c1cc(F)ccc1Cl)NC2=O)c1cc(F)cc(C(F)(F)F)c1 (stereo in doubt) [Compound I-1126]
46 | 10000 to 100000 | Cn1cc(C(=O)Nc2cccc3c2CNC3=O)c2ccccc21 [Compound I-403]
47 | 10000 to 100000 | C[C@H](O)c1cc(-c2ccc3ncnn3c2)cc2c1[C@@H](c1cc(F)ccc1Cl)NC2=O (single isomer, unassigned) [Compound I-2228]
48 | ≤ 100 | Nc1nnc2ccc(-c3cc(NC(=O)c4cc(F)cc(C(F)(F)F)c4)c4c(c3)C(=O)N[C@H]4c3cc(F)ccc3Cl)cn12 [Compound I-1449]
49 | ≤ 100 | O=C(Nc1cc(Cc2ccc3nncn3c2)cc2c1C(c1cc(F)ccc1Cl)NC2=O)c1cc(F)cc(C(F)(F)F)c1 (centres unmarked) [Compound I-1528]
50 | 1000 to 10000 | O=C1N[C@H](c2cc(F)ccc2Cl)c2c(NC(=O)N3C[C@](O)(C(F)(F)F)c4cc(F)ccc43)cc(-n3ccnn3)cc21 (single isomer, unassigned) [Compound I-2548]
51 | 10000 to 100000 | O=C1N[C@H](c2cc(F)ccc2Cl)c2c(NC(=O)[C@H]3CCCNC3)cc(-c3ccc4ncnn4c3)cc21 (racemic) [Compound I-1848]
52 | 10000 to 100000 | O=C(CC1CC1)Nc1cc(-c2ccc3ncnn3c2)cc2c1C(c1cc(F)ccc1Cl)NC2=O (centres unmarked) [Compound I-1781]
53 | 1000 to 10000 | [2H][C@]1(c2cc(F)ccc2Cl)NC(=O)c2cccc(NC(=O)N3C[C@@](O)(C(F)(F)F)c4cc(F)ccc43)c21 (single isomer, unassigned) [Compound I-2683]
54 | 100 to 500 | CC(C)(O)COc1cc(NC(=O)c2cc(F)cc(C(F)(F)F)c2)c2c(n1)C(=O)NC2c1cc(F)ccc1Cl (centres unmarked) [Compound I-1421]
55 | 1000 to 10000 | Cc1c(F)cccc1[C@H]1NC(=O)c2cc(Br)cc(NC(=O)c3cc(F)cc(C(F)(F)F)c3)c21 [Compound I-749]
56 | 10000 to 100000 | Cc1ccccc1C1NC(=O)c2cccc(NC(=O)c3n[nH]c4ccccc34)c21 (centres unmarked) [Compound I-24]
57 | 1000 to 10000 | Nc1cc(NC(=O)N2C[C@H](O)c3cc(F)ccc32)c2c(c1)C(=O)N[C@@H]2c1cc(F)ccc1Cl (single isomer, unassigned) [Compound I-2412]
58 | 100 to 500 | O=C(Nc1cc(Br)cc2c1C(c1cc(F)ccc1Cl)NC2=O)NC12CC3CC(C1)CC(C(F)(F)F)(C3)C2 (centres unmarked) [Compound I-1256]
59 | ≤ 100 | N#CCC(O)c1cc(NC(=O)c2cc(F)cc(C(F)(F)F)c2)c2c(c1)C(=O)NC2c1cc(F)ccc1Cl (racemic) [Compound I-1243]
60 | ≤ 100 | O=C(Nc1cc(-c2ccc3ncnn3n2)cc2c1C(c1cc(F)ccc1Cl)NC2=O)c1cc(F)cc(C(F)(F)F)c1 (centres unmarked) [Compound I-1458]
61 | 1000 to 10000 | O=C(Nc1cccc2c1[C@H](CC1CCCC1)NC2=O)c1cc(F)cc(C(F)(F)F)c1 [Compound I-2153]
62 | ≤ 100 | O=C(Nc1cc(Br)cc2c1[C@H](c1cc(Cl)cc(F)c1F)NC2=O)c1cc(F)cc(C(F)(F)F)c1 [Compound I-786]
